According to PubChem BioAssay (NCI):
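Tested at 5 concentrations; 48 h exposure; 96-well plates; endpoints linearly interpolated, else capped at highest concentration. The concentration for 50% growth inhibition is given as GI50. Definition used: TGI = concentration required for complete inhibition of growth.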

Experiments:
Assay in all cases: DTP human tumour cell line panel, 48 h
DU-145 prostate = tested on: DU-145 prostate
OVCAR-5 ovarian = tested on: OVCAR-5 ovarian
SF-295 CNS = tested on: SF-295 CNS
ACHN renal = tested on: ACHN renal
MCF7 breast = tested on: MCF7 breast
NCI-H522 lung = tested on: NCI-H522 lung
OVCAR-3 ovarian = tested on: OVCAR-3 ovarian
NCI-H460 lung = tested on: NCI-H460 lung
HT29 colon = tested on: HT29 colon
A549 NSCLC = tested on: A549 NSCLC
COLO 205 colon = tested on: COLO 205 colon

SMILES	TGI (DU-145 prostate) [µM]	TGI (OVCAR-5 ovarian) [µM]	TGI (SF-295 CNS) [µM]	TGI (ACHN renal) [µM]	TGI (MCF7 breast) [µM]	TGI (NCI-H522 lung) [µM]	TGI (OVCAR-3 ovarian) [µM]	TGI (NCI-H460 lung) [µM]	TGI (HT29 colon) [µM]	TGI (A549 NSCLC) [µM]	TGI (COLO 205 colon) [µM]	GI50 (DU-145 prostate) [µM]	GI50 (OVCAR-5 ovarian) [µM]	GI50 (SF-295 CNS) [µM]	GI50 (ACHN renal) [µM]	GI50 (MCF7 breast) [µM]	GI50 (OVCAR-3 ovarian) [µM]	GI50 (NCI-H460 lung) [µM]	GI50 (HT29 colon) [µM]	GI50 (COLO 205 colon) [µM]
COc1ccc(OC)c([N+](=O)[O-])c1-c1nc2sc(C)c(C)n2c1/C=N/N=C(N)N	> 100	> 100	> 100	> 100	79.5	> 100	> 100	> 100	> 100	> 100	> 100	–	–	–	–	–	–	–	–	–
CC(C)=CC[C@H]1C[C@@]2(CC=C(C)C)C(=O)/C(=C(/O)c3ccccc3)C(=O)[C@](CC=C(C)C)(C2=O)C1(C)C	–	19.5	17.8	21.8	21.5	32.5	–	11.5	23.4	23.7	–	–	–	–	–	–	–	–	–	–
N=C(N)SCCN1CCCCC1	64.7	> 100	> 100	> 100	34.3	24.3	43.9	> 100	> 100	> 100	> 100	–	–	–	–	–	–	–	–	–
O=C(CSc1nc2ccc(I)cc2c(=O)n1Cc1ccccc1)NN1C(=O)CSC1c1ccccc1 (stereo not drawn)	78.1	> 100	76	33.1	42.1	35.5	32.4	36.3	> 100	> 100	34.6	–	–	–	–	–	–	–	–	–
C[N+]1(C)C/C(=C\c2ccc(O)cc2)C(=O)/C(=C/c2ccc(O)cc2)C1	–	> 100	> 100	> 100	–	> 100	> 100	> 100	> 100	> 100	> 100	–	–	–	–	–	–	–	–	–
CC(=O)[C@]12OC(=O)C3=C1[C@H](CC[C@@H]3C)[C@@H](C)C[C@H]2C=C(C)C	15.4	15.2	12.8	15.3	17.2	11.4	14	17.3	13.9	16.8	16.1	–	–	–	–	–	–	–	–	–
CCCCCCCCc1ccc(CCC(N)(CO)CO)cc1	3.24	3.08	3.93	2.97	3.07	–	3.48	3.53	3.31	–	2.92	1.81	1.64	1.98	1.61	1.67	1.94	1.76	1.76	1.58
CC(=O)c1c(C)cc2cccc(OC3OC(CO)C(O)C(O)C3O)c2c1O (stereo not drawn) (tested in a mixture with another compound)	> 100	> 100	> 100	> 100	> 100	> 100	> 100	> 100	> 100	> 100	> 100	–	–	–	–	–	–	–	–	–
C=C(C[C@@H](O)[C@H](C)NC(=O)OCc1ccccc1)C(=O)OC(C)(C)C	> 100	> 100	> 100	> 100	> 100	> 100	> 100	> 100	> 100	> 100	> 100	–	–	–	–	–	–	–	–	–
COc1cc(O)c2c(=O)c(OC)c(-c3ccc(OC)c(OC)c3)oc2c1.[Zn+2]	> 100	> 100	35.9	> 100	> 100	24.1	35.7	> 100	> 100	> 100	> 100	24.6	> 100	5.57	35.4	92.3	14.1	–	41.8	–
CC(=O)Oc1cc(/C=C/c2ccc(O)cc2)cc(OC(C)=O)c1	> 100	> 100	> 100	> 100	> 100	> 100	> 100	> 100	93.1	> 100	> 100	–	–	–	–	–	–	–	–	–
C[N+]1(c2ccccc2)C=C(c2ccccc2)SC1=S (stereo not drawn)	> 100	> 100	> 100	> 100	> 100	> 100	> 100	> 100	> 100	> 100	> 100	–	–	–	–	–	–	–	–	–
CC[C@H]1C=CCC[C@@]2(C[C@@H]3CC[C@H]4[C@@H](C(=O)OCCCCCCCCCCCCCCCC(=O)N(CCCNC(C)=O)C[C@H](CCNC(C)=O)OC(C)=O)[C@@]5(CCC[C@@H](C)O5)NC(=[N+]34)N2)O1	2.9	2.96	3.32	3.3	2.98	2.63	2.03	3.25	2.7	3.42	2.67	–	–	–	–	–	–	–	–	–
Nc1ccc(S(=O)(=O)NCCS(=O)(=O)O)cc1	> 100	> 100	> 100	> 100	–	> 100	> 100	> 100	> 100	> 100	–	–	–	–	–	–	–	–	–	–
NC(=S)N/N=C1\CC(c2ccccc2)Nc2ccccc21 (stereo not drawn)	–	–	> 100	> 100	–	99.2	> 100	> 100	48.5	–	73.3	–	–	–	–	–	–	–	–	–
O=C(c1ccc(Cl)c(Cl)c1)N(C(=O)N1CCN(c2ccccc2)CC1)S(=O)(=O)c1ccccc1	> 100	64.5	> 100	> 100	> 100	39.7	> 100	> 100	> 100	> 100	> 100	–	–	–	–	–	–	–	–	–
O=C(/C=C/c1ccc(O)cc1)c1cc(-c2cc(CCC(=O)c3ccc(O)cc3O)ccc2O)c(O)cc1O	> 50	> 50	> 50	> 50	> 50	> 50	> 50	> 50	35.8	> 50	22.6	–	–	–	–	–	–	–	–	–
Cc1ncc(COP(=O)(O)O)c(C)c1O	–	> 100	> 100	> 100	–	> 100	> 100	> 100	> 100	> 100	–	–	–	–	–	–	–	–	–	–
CC(=O)C(N=NC1CCC(S(=O)(=O)NB2N=CS2)CC1)C(=O)Nc1ccccc1C (stereo not drawn)	–	39.3	35.1	24.6	–	29.6	27	33.9	29.9	28.6	37.2	–	–	–	–	–	–	–	–	–
CCOc1ccc(N=Nc2ccc(-c3ccc(N=Nc4c(O)ccc5cc(S(=O)(=O)O)cc(S(=O)(=O)O)c45)cc3)cc2)cc1	–	> 100	> 100	> 100	> 100	> 100	> 100	> 100	> 100	> 100	> 100	–	–	–	–	–	–	–	–	–
O=C1O/C(=C\C=C\CO)C=C1/C=C/CO	50.7	41.7	> 100	69.5	> 100	22.5	48.8	> 100	88.5	> 100	5.16	–	–	–	–	–	–	–	–	–
